The subject of one experiment is E. cloacae. Description: Broth dilution MIC/MBC. The class given is cell-based, Enterobacter cloacae. Particulars: for MBC / MIC: Enterobacter cloacae; for MBC: read-out: MBC E. cloacae; for MIC: read-out: MIC E. cloacae. For orientation: In broth dilution the organism is exposed to a series of concentrations in liquid medium.
A further experiment deals with B. pumilus. As to the kind of experiment: Broth dilution MIC/MBC. In kind it is cell-based, Bacillus pumilus. To be noted: for MBC / MIC: Bacillus pumilus; for MBC: read-out: MBC B. pumilus; for MIC: read-out: MIC B. pumilus.
Experiment [1] deals with E. coli. Description: Broth dilution MIC/MBC. The class given is cell-based, Escherichia coli. Particulars: for MBC / MIC: Escherichia coli; for MBC: read-out: MBC E. coli; for MIC: read-out: MIC E. coli.
The subject of another experiment is S. faecalis. As to the kind of experiment: Broth dilution MIC/MBC. The class given is cell-based, Streptococcus faecalis. To be noted: for MBC / MIC: Enterococcus faecalis; for MBC: read-out: MBC S. faecalis; for MIC: read-out: MIC S. faecalis.
Another experiment has as its system S. cerevisiae. As to the kind of experiment: Broth dilution MIC/MFC. In kind it is cell-based, Saccharomyces cerevisiae. To be noted: for MFC / MIC: Saccharomyces cerevisiae; for MFC: read-out: MFC S. cerevisiae; for MIC: read-out: MIC S. cerevisiae.
The subject of another experiment is C. albicans. Description: Broth dilution MIC/MFC. The class given is cell-based, Candida albicans. Particulars: for MFC / MIC: Candida albicans; for MFC: read-out: MFC C. albicans; for MIC: read-out: MIC C. albicans, broth dilution; for MIC C. albicans: broth dilution.
For experiment [2], the system named is E. coli. Description: Time-kill kinetic test. In kind it is cell-based. To be noted: 1x MIC.

In brackets after ≈: the same amount, converted by molar mass. Several values for one entry are separate records, joined by “and”; a condition that tells them apart may be missing. Identical values can stand only once.

As a reminder, the MBC is the smallest concentration meeting the test's criterion for killing. What is called MIC is the smallest concentration in the dilution series that meets the test's criterion for growth inhibition. For the compound `Cc1c(C(N)=O)c(N)n(N)c(=O)c1C#N` [Compound 3a, 1,2-diamino-5-cyano-4-methyl-6-oxo-1,6-dihydropyridine-3-carboxamide], in the experiment with E. cloacae, the “MBC/ MIC ratio E. cloacae” value was found to be 8, the MBC is 31.3 µg/mL (≈ 151 µM) and the MIC amounted to 3.91 µg/mL (≈ 18.9 µM). In addition, in the experiment with B. pumilus, the “MBC/ MIC ratio B. pumilus” value is given as 4, the MBC came to 125 µg/mL (≈ 603 µM) and the MIC was determined as 31.3 µg/mL (≈ 151 µM). Besides, in the experiment with E. coli [1], the “MBC/ MIC ratio E. coli” value is listed as 4, the MBC was 62.5 µg/mL (≈ 302 µM) and the MIC was found to be 15.6 µg/mL (≈ 75.3 µM). Besides, in the experiment on S. faecalis, the “MBC/ MIC ratio S. faecalis” value was found to be 4, the MBC turned out to be 31.3 µg/mL (≈ 151 µM) and the MIC is 7.81 µg/mL (≈ 37.7 µM). In addition, in the experiment on S. cerevisiae, the “MFC/ MIC ratio S. cerevisiae” value amounted to 4, the MFC was found to be 125 µg/mL (≈ 603 µM) and the MIC worked out at 31.3 µg/mL (≈ 151 µM). In addition, in the experiment with C. albicans, the “MFC/ MIC ratio C. albicans” value was determined as 4 and the MFC amounted to 500 µg/mL (≈ 2410 µM).

As for `N#Cc1c(-c2ccc(Cl)cc2Cl)c(C(N)=O)c(N)n(N)c1=O` [Compound 3b, 1,2-diamino-5-cyano-4-(2,4-dichlorophenyl)-6-oxo-1,6-dihydropyridine-3-carboxamide], in the experiment on E. cloacae, the “MBC/ MIC ratio E. cloacae” value was 4, the MBC is 125 µg/mL (≈ 370 µM) and the MIC was 31.3 µg/mL (≈ 92.6 µM). In addition, in the experiment on B. pumilus, the “MBC/ MIC ratio B. pumilus” value is 2, the MBC came to 31.3 µg/mL (≈ 92.6 µM) and the MIC was determined as 15.6 µg/mL (≈ 46.1 µM). In the experiment on E. coli [1], the “MBC/ MIC ratio E. coli” value is on record as 4, the MBC amounted to 31.3 µg/mL (≈ 92.6 µM) and the MIC was 7.81 µg/mL (≈ 23.1 µM). For the same compound, in the experiment with S. faecalis, the “MBC/ MIC ratio S. faecalis” value is given as 2, the MBC is 62.5 µg/mL (≈ 185 µM) and the minimal inhibitory concentration (MIC) worked out at 31.3 µg/mL (≈ 92.6 µM). Further, in the experiment on S. cerevisiae, the “MFC/ MIC ratio S. cerevisiae” value was 2, the MFC came out at 250 µg/mL (≈ 739 µM) and the MIC amounted to 125 µg/mL (≈ 370 µM). Moreover, in the experiment on C. albicans, the “MFC/ MIC ratio C. albicans” value amounted to 2, the MFC was determined as 125 µg/mL (≈ 370 µM) and the MIC was 62.5 µg/mL (≈ 185 µM).

For the compound `CN(C)c1ccc(-c2c(C(N)=O)c(N)n(N)c(=O)c2C#N)cc1` [Compound 3c, 1,2-diamino-5-cyano-4-(4-(dimethylamino)phenyl)-6-oxo-1,6-dihydropyridine-3-carboxamide], in the experiment with E. cloacae, the “MBC/ MIC ratio E. cloacae” value is on record as 2, the MBC was 125 µg/mL (≈ 400 µM) and the MIC was determined as 62.5 µg/mL (≈ 200 µM). Also, in the experiment with B. pumilus, the “MBC/ MIC ratio B. pumilus” value is reported as 4, the MBC came out at 62.5 µg/mL (≈ 200 µM) and the MIC was 15.6 µg/mL (≈ 49.9 µM). In the experiment with E. coli [1], the “MBC/ MIC ratio E. coli” value came to 4, the MBC came out at 62.5 µg/mL (≈ 200 µM) and the MIC is 15.6 µg/mL (≈ 49.9 µM). Also, in the experiment on S. faecalis, the “MBC/ MIC ratio S. faecalis” value worked out at 2, the MBC stood at 125 µg/mL (≈ 400 µM) and the MIC amounted to 62.5 µg/mL (≈ 200 µM). Moreover, in the experiment with S. cerevisiae, the “MFC/ MIC ratio S. cerevisiae” value worked out at 4, the MFC is 125 µg/mL (≈ 400 µM) and the MIC stood at 31.3 µg/mL (≈ 100 µM). Further, in the experiment with C. albicans, the “MFC/ MIC ratio C. albicans” value amounted to 2, the MFC stood at 125 µg/mL (≈ 400 µM), the MIC was determined as 31.3 µg/mL (≈ 100 µM) and the “MIC C. albicans” value worked out at 62.5 µg/mL (≈ 200 µM).

With `Cc1c(C(N)=S)c(N)n(N)c(=O)c1C#N` [Compound 4a, 1,2-diamino-5-cyano-4-methyl-6-oxo-1,6-dihydropyridine-3-carbothioamide], in the experiment on E. cloacae, the “MBC/ MIC ratio E. cloacae” value is 2, the MBC is 125 µg/mL (≈ 560 µM) and the MIC stood at 62.5 µg/mL (≈ 280 µM). Moreover, in the experiment with B. pumilus, the “MBC/ MIC ratio B. pumilus” value is given as 2, the MBC is 125 µg/mL (≈ 560 µM) and the MIC turned out to be 62.5 µg/mL (≈ 280 µM). In addition, in the experiment on E. coli [1], the “MBC/ MIC ratio E. coli” value stood at 2, the MBC came to 31.3 µg/mL (≈ 140 µM) and the MIC is 15.6 µg/mL (≈ 69.9 µM). Besides, in the experiment on S. faecalis, the “MBC/ MIC ratio S. faecalis” value amounted to 4, the MBC is 62.5 µg/mL (≈ 280 µM) and the MIC came to 15.6 µg/mL (≈ 69.9 µM). In addition, in the experiment with S. cerevisiae, the “MFC/ MIC ratio S. cerevisiae” value came out at 8, the MFC came to 500 µg/mL (≈ 2240 µM) and the MIC worked out at 62.5 µg/mL (≈ 280 µM). In the experiment on C. albicans, the MFC is 62.5 µg/mL (≈ 280 µM) and the minimal inhibitory concentration (MIC) stood at 31.3 µg/mL (≈ 140 µM).

On to `N#Cc1c(-c2ccc(Cl)cc2Cl)c(C(N)=S)c(N)n(N)c1=O` [Compound 4b, 1,2-diamino-5-cyano-4-(2,4-dichlorophenyl)-6-oxo-1,6-dihydropyridine-3-carbothioamide], for which the MBC with E. cloacae amounted to 125 µg/mL (≈ 353 µM); with B. pumilus, 62.5 µg/mL (≈ 176 µM); in the experiment on E. coli [1], 62.5 µg/mL (≈ 176 µM); in the experiment on S. faecalis, 125 µg/mL (≈ 353 µM). For the same compound, the MIC in the experiment with E. cloacae was 31.3 µg/mL (≈ 88.4 µM); in the experiment with B. pumilus, 31.3 µg/mL (≈ 88.4 µM); with E. coli [1], 7.81 µg/mL (≈ 22 µM); with S. faecalis, 31.3 µg/mL (≈ 88.4 µM); in the experiment with S. cerevisiae, 125 µg/mL (≈ 353 µM); in the experiment with C. albicans it was 31.3 µg/mL (≈ 88.4 µM). For the same compound, in the experiment on B. pumilus, the “MBC/ MIC ratio B. pumilus” value came to 2. The “MFC/ MIC ratio S. cerevisiae” value with S. cerevisiae amounted to 4. The MFC in the experiment on S. cerevisiae is 500 µg/mL (≈ 1410 µM); in the experiment on C. albicans, 62.5 µg/mL (≈ 176 µM).

As to `CN(C)c1ccc(-c2c(C(N)=S)c(N)n(N)c(=O)c2C#N)cc1` [Compound 4c, 1,2-diamino-5-cyano-4-(4-(dimethylamino)phenyl)-6-oxo-1,6-dihydropyridine-3-carbothioamide], in the experiment with E. cloacae, the “MBC/ MIC ratio E. cloacae” value is 4, the MBC is 250 µg/mL (≈ 761 µM) and the minimum inhibitory concentration (MIC) was 62.5 µg/mL (≈ 190 µM). In addition, in the experiment on B. pumilus, the “MBC/ MIC ratio B. pumilus” value is listed as 2, the MBC was 125 µg/mL (≈ 381 µM) and the minimum inhibitory concentration (MIC) worked out at 62.5 µg/mL (≈ 190 µM). In addition, in the experiment with E. coli [1], the “MBC/ MIC ratio E. coli” value is given as 4, the MBC worked out at 125 µg/mL (≈ 381 µM) and the MIC came out at 31.3 µg/mL (≈ 95.3 µM). Moreover, in the experiment with S. faecalis, the “MBC/ MIC ratio S. faecalis” value is on record as 4, the MBC stood at 31.3 µg/mL (≈ 95.3 µM) and the MIC was found to be 7.81 µg/mL (≈ 23.8 µM). Also, in the experiment on S. cerevisiae, the “MFC/ MIC ratio S. cerevisiae” value stood at 2, the MFC was determined as 125 µg/mL (≈ 381 µM) and the MIC stood at 62.5 µg/mL (≈ 190 µM). Moreover, in the experiment with C. albicans, the “MFC/ MIC ratio C. albicans” value worked out at 4, the MFC was found to be 62.5 µg/mL (≈ 190 µM) and the MIC was 15.6 µg/mL (≈ 47.5 µM).

As for `N#Cc1c(-c2ccc(OCc3ccccc3)cc2)c(C(N)=S)c(N)n(N)c1=O` [Compound 4d, 1,2-diamino-4-(4-(benzyloxy)phenyl)-5-cyano-6-oxo-1,6-dihydropyridine-3-carbothioamide], in the experiment on E. cloacae, the “MBC/ MIC ratio E. cloacae” value worked out at 2, the MBC was 125 µg/mL (≈ 319 µM) and the MIC worked out at 62.5 µg/mL (≈ 160 µM). In the experiment on B. pumilus, the “MBC/ MIC ratio B. pumilus” value was 4, the MBC is 31.3 µg/mL (≈ 80 µM) and the MIC was 7.81 µg/mL (≈ 20 µM). In the experiment on E. coli [1], the “MBC/ MIC ratio E. coli” value came out at 4, the MBC turned out to be 31.3 µg/mL (≈ 80 µM) and the MIC was found to be 7.81 µg/mL (≈ 20 µM). Also, in the experiment on S. faecalis, the “MBC/ MIC ratio S. faecalis” value came to 2, the MBC was 62.5 µg/mL (≈ 160 µM) and the MIC turned out to be 31.3 µg/mL (≈ 80 µM). In addition, in the experiment on S. cerevisiae, the “MFC/ MIC ratio S. cerevisiae” value turned out to be 2, the MFC came to 62.5 µg/mL (≈ 160 µM) and the MIC worked out at 31.3 µg/mL (≈ 80 µM). In addition, in the experiment with C. albicans, the “MFC/ MIC ratio C. albicans” value was 2, the MFC was 125 µg/mL (≈ 319 µM), the MIC was determined as 31.3 µg/mL (≈ 80 µM) and the “MIC C. albicans” value was 62.5 µg/mL (≈ 160 µM).

In the case of `CC(=O)N1CCN(c2ccc(OCC3COC(Cn4ccnc4)(c4ccc(Cl)cc4Cl)O3)cc2)CC1` (stereo not shown) [Keto., Ketoconazole, reference compound], the MFC in the experiment on S. cerevisiae was found to be 15.6 µg/mL (≈ 29.4 µM); in the experiment with C. albicans, 31.3 µg/mL (≈ 58.9 µM). Further, the MIC in the experiment with S. cerevisiae and with C. albicans was 1.95 µg/mL (≈ 3.67 µM) in each case.

In the case of `CC1(C)S[C@@H]2[C@H](NC(=O)Cc3ccccc3)C(=O)N2[C@H]1C(=O)O` [Pen. G, Penicillin G, reference compound], in the experiment on B. pumilus, the “MBC/ MIC ratio B. pumilus” value came out at 2, the MBC is 125 µg/mL (≈ 374 µM) and the MIC stood at 62.5 µg/mL (≈ 187 µM). Besides, in the experiment with S. faecalis, the “MBC/ MIC ratio S. faecalis” value was determined as 2, the MBC was 62.5 µg/mL (≈ 187 µM) and the MIC came out at 31.5 µg/mL (≈ 94.2 µM).

As to gentamycin [reference compound], the “Time to bactericidal activity against E. coli” value with E. coli [2] is 90 to 120 min and 120 min.

The record behind these values is publication PMC11562494 (BMC Chemistry, 2024).
